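Where inhibition never reached the appropriate level, the endpoint shown equals the highest concentration tested. Otherwise, values were interpolated linearly from a five-concentration, 48-hour dose response in 96-well plates. At the TGI there is no net growth.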
Columns and labels:
Assay in all cases: NCI anticancer screen, dose series, 48 h
[1] = tested on: T-47D breast
[2] = tested on: NCI-H23 lung
[3] = tested on: ACHN renal
[4] = tested on: A549 NSCLC
[5] = tested on: 786-0 renal
[6] = tested on: NCI-H226 lung
[7] = tested on: LOX IMVI melanoma
[8] = tested on: DU-145 prostate
[9] = tested on: A498 renal
[10] = tested on: HT29 colon
[11] = tested on: OVCAR-5 ovarian
[12] = tested on: EKVX NSCLC
[13] = tested on: KM12 colon
[14] = tested on: U251 CNS
[15] = tested on: SF-268 CNS
[16] = tested on: HOP-92 NSCLC
[17] = tested on: BT-549 breast
[18] = tested on: OVCAR-3 ovarian
[19] = tested on: UACC-62 melanoma
[20] = tested on: CCRF-CEM leukemia

SMILES | TGI [1] [µM] | TGI [2] [µM] | TGI [3] [µM] | TGI [4] [µM] | TGI [5] [µM] | TGI [6] [µM] | TGI [7] [µM] | TGI [8] [µM] | TGI [9] [µM] | TGI [10] [µM] | TGI [11] [µM] | TGI [12] [µM] | TGI [13] [µM] | TGI [14] [µM] | TGI [15] [µM] | TGI [16] [µM] | TGI [17] [µM] | TGI [18] [µM] | TGI [19] [µM] | TGI [20] [µM]
COc1ccc(/C=C(\NC(=O)c2ccccc2)C(=O)NN(C)c2ccnc3cc(Cl)ccc23)cc1OC | > 100 | 62.8 | 79 | 97.1 | 79.2 | 40.8 | 35.1 | 66.3 | > 100 | > 100 | > 100 | > 100 | 34.7 | 35.4 | 35.4 | 55.3 | 39.5 | 69.7 | – | –
COC1OC(COC(=O)NCCCCC(=O)C(F)(F)F)C(O)C(O)C1O (stereo unspecified) | > 100 | > 100 | > 100 | > 100 | > 100 | – | > 100 | > 100 | – | > 100 | > 100 | – | > 100 | > 100 | > 100 | > 100 | > 100 | > 100 | > 100 | > 100
Cc1c2cnccc2nc2[nH]c3ccncc3c12 | > 100 | 6.9 | 13.6 | > 100 | 63.1 | – | 11.9 | > 100 | 47.5 | > 100 | 40.5 | 96.9 | 41.8 | > 100 | 7.62 | 25.3 | 63.8 | 42.4 | 41.5 | 32.6
CSCC[C@H]1C(=O)N=C(N)N1C(=O)OCc1ccccc1 | – | 55.4 | > 100 | – | > 100 | 84.1 | > 100 | > 100 | > 100 | > 100 | > 100 | > 100 | > 100 | > 100 | > 100 | – | 60.9 | > 100 | 63.9 | –
NCCCc1ccc2oc3ccccc3c2c1 | 33.7 | 41.8 | 32.1 | 32.9 | 28.3 | 35.5 | 39.9 | 30.6 | 30.2 | 26 | 26.2 | – | – | 33.4 | 39.1 | 43 | 37.2 | 31.5 | 31.9 | 32.6
CCCCCCCCCCCC1N=C(N)NC(CCCO)=C1C(=O)OC (stereo unspecified) | 17.5 | 4.94 | 17.3 | 30.4 | – | 32 | – | 34.6 | 41.6 | 3.05 | 16.6 | 40.6 | 2.81 | – | 5.81 | 10.7 | 23.1 | 9.08 | 21.5 | 3.79
Nc1nnc(-c2ccco2)c(-c2ccco2)n1 | > 100 | > 100 | > 100 | > 100 | > 100 | > 100 | – | > 100 | > 100 | > 100 | > 100 | > 100 | > 100 | > 100 | > 100 | > 100 | > 100 | > 100 | > 100 | > 100
Cc1cc(C2(c3cc(C)c(O)c(C(=O)O)c3)OS(=O)(=O)c3ccccc32)cc(C(=O)O)c1O | > 100 | – | > 100 | > 100 | > 100 | > 100 | > 100 | > 100 | > 100 | > 100 | > 100 | > 100 | > 100 | > 100 | > 100 | > 100 | > 100 | > 100 | > 100 | –
CCOC(=O)COc1ccc(/C=C/C(=O)c2ccc(OC)cc2)cc1 | > 100 | 79.8 | > 100 | > 100 | 54.3 | – | 39.4 | 76.8 | > 100 | 64.9 | > 100 | > 100 | > 100 | 34.6 | 82.7 | 48.2 | > 100 | > 100 | 58.6 | > 100
C1=NCCOCCN=Cc2ccccc2OCc2cccc(n2)COc2ccccc21 | – | > 25 | > 25 | > 25 | > 25 | – | – | 20.7 | > 25 | 10.9 | > 25 | > 25 | > 25 | 18.2 | > 25 | > 25 | 19.1 | 9.01 | 9.09 | > 25
COc1ccc(-c2c(C#N)c(S)n(C3OC(CO)C(O)C(O)C3O)c(=O)c2C#N)cc1 (stereo unspecified) | > 100 | > 100 | > 100 | > 100 | > 100 | > 100 | > 100 | > 100 | > 100 | > 100 | > 100 | – | > 100 | – | > 100 | – | > 100 | > 100 | > 100 | > 100
NC(N)=NC(N)=Nc1c(F)c(F)c(F)c(F)c1F | > 100 | > 100 | > 100 | > 100 | > 100 | > 100 | – | > 100 | > 100 | > 100 | > 100 | > 100 | > 100 | > 100 | > 100 | > 100 | > 100 | > 100 | > 100 | –
COc1cc(/C=C/C2=NN(c3cccc(S(=O)(=O)O)c3)C3(C2)C(Cl)C(=O)N3c2nc3ccccc3s2)ccc1O (stereo unspecified) | 26.4 | 29.6 | 30.9 | > 100 | 32.2 | 52.6 | 27.5 | – | > 100 | 40.8 | 37.9 | 42.3 | 41.2 | 40.7 | 50.5 | 29.7 | 29.1 | – | 43.1 | 42.2
